Values quoted from earlier work, collected in US7887847B2, “Nutritional supplement for treatment of ocular diseases” (priority 2004, dated 2011).

Tested on: macular degeneration
Conditions: adults with the highest dietary intake compared with people with the lowest intake

SMILES: CC1=C[C@H](O)CC(C)(C)[C@H]1/C=C/C(C)=C/C=C/C(C)=C/C=C/C=C(C)/C=C/C=C(C)/C=C/C1=C(C)C[C@@H](O)CC1(C)C [lutein, Lutein]
- decreased risk of macular degeneration: 57%
